# In publication PMC9839752, “Formaldehyde reacts with N-terminal proline residues to give bicyclic aminals” (Communications Chemistry, 2023):
# Where two headings read alike, the source gives them in different places. Peptide text beside a SMILES is read from it.
# What was measured:
# [1] = 1H NMR time course of reaction of dipeptides with HCHO; type: physicochemical; conditions: dipeptide with 10-fold excess HCHO, pD 10, 1H NMR
# Experimental: Fig. 3 HCHO reacts with an N-terminal proline to form a methylene bridge between an N-terminal nitrogen and the adjacent peptide bond nitrogen. a Products of reactions between HCHO and the dipeptides AzeGlu (n = 1, 1), ProGlu (n = 2, 2), and PipGlu (n = 3, 3). A 10-fold molar excess of aqueous HCHO (410 µmol) was added to each dipeptide (41 µmol).
# The reactions of the dipeptides with HCHO (10-fold excess, pD 10) were studied in real time by ^1H NMR (Figs. 3c and S18). […] Dipeptide 2 was slower to react (2a formation rate 0.24 μM s^−1), while 3 was the slowest to react (3a formation rate 0.054 μM s^−1). […]
# (§1) NMR Time Course and Stability – Dipeptides
# The dipeptide (23.3 µmol) was dissolved in D 2O; the pD was adjusted to 10 (corresponding to pH 9.6) using NaOD and DCl (total volume: 1 mL, 23.3 mM stock). HCHO (30.0 mg, 1.0 mmol) was suspended with D2O in a sealed microwave vial and heated until a clear colourless solution was obtained; the pD was then adjusted with NaOD and DCl to 10 (total volume: 3 mL, 1/3 M stock). For time course measurements, the dipeptide stock solutions (100 μL, 2.33 μmol) at pD 10 and D 2O (400 μL) were mixed and recorded. HCHO (70 μL, 23.3 μmol, 10 equivalents) at pD 10 was added and progress was monitored for the indicated time. To investigate the stability of the NMR-observed HCHO adducts, a 40-fold excess with respect to starting material of the HCHO scavenger 1,3-cyclohexanedione (1,3-CHD, 93.2 μL from 1 M stock in D2O) was added. […]
# [2] = NMR stability of HCHO adducts to HCHO scavengers and pH; type: physicochemical; conditions: for stability of HCHO adduct to 1,3-cyclohexanedione (1,3-CHD): 40-fold excess 1,3-CHD, pD 10, analysis period 22 h
# Experimental: To investigate the stability and reversibility of the HCHO adducts (1a + b, 2a, 3a, 4a), the dipeptides were reacted with a 10-fold excess of HCHO at pD 10, then treated with the HCHO scavenger 1,3-cyclohexanedione (1,3-CHD)[14]. […]
# as §1
# The dipeptide (23.3 µmol) was dissolved in D 2O; the pD was adjusted to 10 (corresponding to pH 9.6) using NaOD and DCl (total volume: 1 mL, 23.3 mM stock). HCHO (30.0 mg, 1.0 mmol) was suspended with D2O in a sealed microwave vial and heated until a clear colourless solution was obtained; the pD was then adjusted with NaOD and DCl to 10 (total volume: 3 mL, 1/3 M stock). For time course measurements, the dipeptide stock solutions (100 μL, 2.33 μmol) at pD 10 and D 2O (400 μL) were mixed and recorded. HCHO (70 μL, 23.3 μmol, 10 equivalents) at pD 10 was added and progress was monitored for the indicated time. To investigate the stability of the NMR-observed HCHO adducts, a 40-fold excess with respect to starting material of the HCHO scavenger 1,3-cyclohexanedione (1,3-CHD, 93.2 μL from 1 M stock in D2O) was added.
# Additionally, stability studies of the HPLC -purified 2a and the corresponding pentapeptide PEPAK-HCHO adduct were conducted. To achieve a 40-fold excess of HCHO scavengers (46.8 μmol) with respect to peptide starting material, the appropriate volumes of GSH (186.4 μL from 250 mM stock), cysteine (46.6 μL from 1 M stock) or 1,3 -cyclohexanedione (46.6 μL from 1 M stock) were added to the peptide-HCHO adducts (50 μL, 1.17 μmol, 23.3 mM stock in D2O) in 400 μL of D2O, thoroughly mixed and recorded. To test for stability of the adduct in different pH conditions, HPLC purified 2a (45 μL of 23.3 mM stock) was dissolved in 405 μL of 50 mM potassium phosphate buffer (D2O) at pH 5.9, 7.4 and 8.5 (pD 6.3, 7.8 and 8.9), thoroughly mixed and recorded.
# [3] = biological target: T1, 4-OT (Pseudomonas putida, UniProt Q01468); experiment: 4-OT absorbance assay (320 nm), kinetic parameters; type: biochemical; conditions: substrate acetaldehyde, 375 µM trans-β-nitrostyrene, 10 µM 4-OT, pH 7.4
# [4] = in vitro; conditions: human, hek293t cells
# Experimental: (§2) We then investigated whether the H2B-HCHO adduct can be identified in human HEK293T cells treated with HCHO. […] Given that N-terminal amino acids and their modifications can regulate protein stability by affecting degradation (the N-end rule)[27], we next investigated whether addition of HCHO to cells affects H2B turnover. HEK293T cells were treated with cycloheximide (CHX) to inhibit protein synthesis, with addition of HCHO and protein quantification.
# (§3) (1 picture or pasted object on this page, not shown here)
# [5] = tested on: H2B mRNA; conditions: HEK293T, HCHO 150+225 µM vs untreated, q = 0.043
# Experimental: as §2
# (§4) Figure S26 | Stability of proteins with an N-terminal proline in the presence of HCHO and RNA-Seq analyses. a) HEK293T cells were treated with 120 µM HCHO (or acetone, or MQ water control; 100 mM stock solutions of carbonyl compounds in MQ water) for 14 h. The cells were then treated with 100 µM cycloheximide (CHX; from a 100 mM DMSO stock solution) and were harvested after 3 h.
# (§5) Additionally, HEK293T cells were treated with 120 µM HCHO (or acetone, or MQ water control) for 14 h, followed by addition of CHX. 7.5 h after the CHX treatment, a further 180 µM of the carbonyl […]
# as §3
# (§6) (ab133512). Secondary antibodies used were anti-mouse IgG, HRP-linked Antibody (Cell Signaling, reference 7076), anti-Rabbit IgG (H+L) HRP Conjugate (Promega reference W4011).
# HEK293T cells (0.9x106) were seeded into 6 cm dishes as biological triplicates. […]
# [6] = tested on: H2A mRNA; conditions: HEK293T, HCHO-treated vs untreated, q = 0.043
# Experimental: as §2, §6
# (§7) HEK293T cells (0.9x106) were seeded into 6 cm dishes as biological triplicates. The next day, cells were treated with 150 μM HCHO (or MQ water control), followed by another cumulative treatment of 225 μM HCHO (or MQ water control) the day after that. Cells were harvested 4 h af ter the second
# [7] = tested on: H3 mRNA; conditions: HEK293T, HCHO-treated vs untreated, q = 0.034
# Experimental: as §2, §6, §7
# [8] = tested on: H2A; conditions: HEK293T, HCHO, CHX (100 µM)
# Experimental: as §2, §4, §5, §3
# [9] = tested on: H2B; conditions: HEK293T, HCHO, >10 h CHX (100 µM)
# Experimental: as §2, §4, §5, §3
# [10] = tested on: H3; conditions: HEK293T, HCHO, CHX (100 µM)
# Experimental: as §2, §4, §5, §3
# [11] = biological target: leukotriene A-4 hydrolase (LTA4H) (Homo sapiens, UniProt P09960); conditions: HEK293T, CHX (100 µM)
# Experimental: as §2, §4, §5, §3
# [12] = biological target: T2, 4-oxalocrotonate tautomerase (4-OT) (Pseudomonas putida, UniProt Q01468); conditions: 4-OT (52.9 µM) pre-incubated with 200 equivalents of HCHO (10.6 mM) 17 h, 37 °C; buffer control complete after 14 min
# [13] = tested on: BL21(DE3) cells
# [14] = biological target: T1, 4-OT; experiment: cell-based
# [15] = biological target: T2, 4-oxalocrotonate tautomerase (4-OT); experiment: biochemical
# [16] = biological target: T3, human JmjC KDM KDM4E (Homo sapiens, UniProt B2RXH2); experiment: KDM4E-catalysed H3K9Me3 peptide demethylation, MALDI MS; type: biochemical; conditions: 800 μM NOG instead of 2OG, 24 h
# T3 construct: made in house; host or cells: E. coli BL21(DE3)
# T3 sequence (B2RXH2 with tags, fused parts or gaps): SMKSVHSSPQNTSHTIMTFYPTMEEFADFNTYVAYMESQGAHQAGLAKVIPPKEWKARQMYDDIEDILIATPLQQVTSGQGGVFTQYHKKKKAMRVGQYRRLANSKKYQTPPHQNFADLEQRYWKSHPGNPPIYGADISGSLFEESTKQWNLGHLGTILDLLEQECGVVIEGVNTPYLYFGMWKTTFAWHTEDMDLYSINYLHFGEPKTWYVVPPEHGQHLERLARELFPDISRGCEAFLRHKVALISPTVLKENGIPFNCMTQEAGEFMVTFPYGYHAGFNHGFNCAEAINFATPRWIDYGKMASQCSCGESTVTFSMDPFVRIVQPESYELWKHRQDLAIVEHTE
# T1 sequence (Q01468 2-63 limits assumed): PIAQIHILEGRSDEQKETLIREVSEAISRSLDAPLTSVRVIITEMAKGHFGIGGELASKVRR
# T2 sequence (Q01468 2-63): as the sequence (Q01468 2-63 limits assumed) above
# Chain of leukotriene A-4 hydrolase (LTA4H) (P09960 2-611 limits assumed): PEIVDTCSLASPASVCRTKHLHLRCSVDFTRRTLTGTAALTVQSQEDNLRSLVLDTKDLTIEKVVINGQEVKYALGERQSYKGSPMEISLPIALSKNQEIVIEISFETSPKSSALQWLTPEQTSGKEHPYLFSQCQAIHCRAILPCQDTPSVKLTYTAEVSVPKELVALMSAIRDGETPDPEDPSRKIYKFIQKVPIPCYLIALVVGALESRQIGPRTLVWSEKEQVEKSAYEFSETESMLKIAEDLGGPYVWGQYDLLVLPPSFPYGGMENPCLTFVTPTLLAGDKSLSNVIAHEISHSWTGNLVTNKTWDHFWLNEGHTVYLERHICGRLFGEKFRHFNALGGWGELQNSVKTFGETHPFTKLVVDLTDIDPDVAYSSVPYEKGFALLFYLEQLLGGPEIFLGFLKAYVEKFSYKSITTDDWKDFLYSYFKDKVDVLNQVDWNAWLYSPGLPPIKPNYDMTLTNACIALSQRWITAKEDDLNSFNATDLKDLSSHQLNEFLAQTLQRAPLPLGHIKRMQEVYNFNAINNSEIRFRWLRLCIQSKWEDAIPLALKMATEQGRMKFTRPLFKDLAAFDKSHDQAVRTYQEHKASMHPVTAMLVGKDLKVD
smiles,measurement,setting,value
"C[C@H](N)C(=O)N[C@@H](CCC(=O)O)C(=O)O [compound 4, AlaGlu] (H-Ala-Glu-OH)",formation rate of HCHO adduct,[1],did not react to give a detected product
C[C@H]1C(=O)N([C@@H](CCC(=O)O)C(=O)O)CN1CO [4a],"stability of HCHO adduct to 1,3-cyclohexanedione (1,3-CHD)",[2],hemiaminal group of 4a was lost to give 4b
O=C(O)CC[C@H](NC(=O)[C@@H]1CCN1CO)C(=O)O [1b],"stability of HCHO adduct to 1,3-cyclohexanedione (1,3-CHD)",[2],"underwent 1,3-CHD-enabled reaction to give 1"
O=C(O)CC[C@@H](C(=O)O)N1CN2CCC[C@H]2C1=O [2a],formation rate of HCHO adduct,[1],0.24 µM/s
same,"stability of HCHO adduct to 1,3-cyclohexanedione (1,3-CHD)",[2],relatively stable
same,stability across a biologically relevant pH range,"[2]; pH 5.9, 7.4 and 8.5",apparently stable
same,stability in the presence of HCHO scavengers cysteine and GSH,[2]; scavengers in 40-fold excess,apparently stable
O=C(O)CC[C@@H](C(=O)O)N1CN2CCCC[C@H]2C1=O [3a],formation rate of HCHO adduct,[1],0.054 µM/s
same,"stability of HCHO adduct to 1,3-cyclohexanedione (1,3-CHD)",[2],relatively stable
CC=O [acetaldehyde],Km,[3],74 mM
O=C(O)CC[C@@H](C(=O)O)N1CN2CC[C@H]2C1=O [1a],formation rate of HCHO adduct,[1],> 1.73 µM/s
same,"stability of HCHO adduct to 1,3-cyclohexanedione (1,3-CHD)",[2],"underwent 1,3-CHD-enabled reaction to give 1"
"C=O [HCHO, Formaldehyde]",MNTC,[4],> 200 µM
same,"H2B mRNA level, fold less in untreated cells",[5],0.37 fold
same,"H2A mRNA level, fold less in untreated cells",[6],0.33 fold
same,"H3 mRNA level, fold less in untreated cells",[7],0.42 fold
same,H2A levels after prolonged CHX treatment,[8],higher levels
same,H2B levels after prolonged CHX treatment,[9],apparently higher H2B levels
same,H3 levels after prolonged CHX treatment,[10],higher levels
same,HCHO-dependent effect on LTA4H stability,[11],no evidence for a HCHO-dependent effect on its stability
same,time to near-complete substrate conversion,[12],> 72 min
same,effect on cell proliferation,[13]; 350 μM HCHO,did not inhibit
same,effect on cell proliferation,[13]; 700 μM HCHO,only mildly inhibited
same,EC50,[14],~350 µM
same,IC50,[15],< 10 mM
O=C(O)CNC(=O)C(=O)O [N-oxalylglycine],effect on H3K9Me3 demethylation and +12 Da H2B adduct formation,[16],abolished
